In article PMC7701510, “Identification of HN252 as a potent inhibitor of protein phosphatase PPM1B” (Journal of Cellular and Molecular Medicine, 2020):
“Also recorded” adds a separate entry of the source.

Assays:
SSH2 = molecular target: T1, SSH2 (Homo sapiens, UniProt Q76I76); experiment: pNPP hydrolysis phosphatase assay (selectivity panel); type: biochemical; settings: pNPP as substrate
T1 sequence (Q76I76 1-1423): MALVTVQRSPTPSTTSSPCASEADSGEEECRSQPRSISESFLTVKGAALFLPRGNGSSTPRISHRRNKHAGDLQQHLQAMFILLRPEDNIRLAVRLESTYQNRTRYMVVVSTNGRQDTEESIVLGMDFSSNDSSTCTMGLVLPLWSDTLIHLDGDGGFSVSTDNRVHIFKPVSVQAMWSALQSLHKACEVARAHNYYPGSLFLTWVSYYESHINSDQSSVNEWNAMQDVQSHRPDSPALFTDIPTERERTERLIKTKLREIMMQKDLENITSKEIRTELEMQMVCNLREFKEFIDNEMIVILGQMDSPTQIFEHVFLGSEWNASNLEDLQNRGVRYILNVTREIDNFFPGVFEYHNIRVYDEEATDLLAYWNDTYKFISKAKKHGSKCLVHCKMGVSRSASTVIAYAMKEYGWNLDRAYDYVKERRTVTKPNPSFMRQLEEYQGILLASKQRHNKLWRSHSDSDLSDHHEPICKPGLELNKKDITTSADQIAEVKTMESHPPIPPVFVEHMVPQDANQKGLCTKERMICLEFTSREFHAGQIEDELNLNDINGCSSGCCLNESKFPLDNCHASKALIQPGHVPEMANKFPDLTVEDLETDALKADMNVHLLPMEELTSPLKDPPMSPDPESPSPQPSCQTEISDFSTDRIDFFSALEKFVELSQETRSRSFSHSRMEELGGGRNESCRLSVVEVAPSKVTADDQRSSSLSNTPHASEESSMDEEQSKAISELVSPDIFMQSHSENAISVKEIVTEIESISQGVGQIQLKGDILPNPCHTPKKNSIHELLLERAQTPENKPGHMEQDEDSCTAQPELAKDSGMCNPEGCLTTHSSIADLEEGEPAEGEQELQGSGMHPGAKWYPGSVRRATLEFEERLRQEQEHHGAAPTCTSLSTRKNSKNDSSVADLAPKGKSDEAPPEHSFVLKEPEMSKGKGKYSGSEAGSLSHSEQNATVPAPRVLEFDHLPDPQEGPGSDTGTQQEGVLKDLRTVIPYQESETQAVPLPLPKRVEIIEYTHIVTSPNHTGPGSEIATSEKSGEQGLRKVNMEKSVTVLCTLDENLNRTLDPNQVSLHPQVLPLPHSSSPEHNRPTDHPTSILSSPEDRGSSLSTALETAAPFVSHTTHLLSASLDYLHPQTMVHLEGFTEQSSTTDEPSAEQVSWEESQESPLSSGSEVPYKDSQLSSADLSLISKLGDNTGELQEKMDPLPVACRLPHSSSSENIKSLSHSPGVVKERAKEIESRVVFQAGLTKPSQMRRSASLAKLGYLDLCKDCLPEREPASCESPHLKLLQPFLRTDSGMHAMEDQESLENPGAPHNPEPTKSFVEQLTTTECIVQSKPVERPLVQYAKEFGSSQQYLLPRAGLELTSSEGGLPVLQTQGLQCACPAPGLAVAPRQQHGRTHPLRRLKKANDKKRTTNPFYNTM

[1] = test system: HL7702 cells with PPM1B shRNA; experiment: Western blot of protein phosphorylation in PPM1B knockdown cells with HN252; settings: HN252 5 μM, 2 h, at 30 h after transfection
Description: Cells were lysed in lysis buffer (50 mM Tris‐HCl, 150 mM NaCl, 0.1% SDS, 1% NP‐40, 0.5% deoxycholate, pH 7.4), supplemented with protease inhibitor (Roche) and phosphatase inhibitor cocktails (Roche). Protein samples were separated by SDS‐PAGE and wet‐transferred to PVDF membranes (Millipore). The membrane was blocked for 1 h in 5% BSA in TBST at room temperature and probed with the appropriate primary antibodies and with an HRP‐conjugated secondary antibody.

STEP = molecular target: T2, STEP (Homo sapiens, UniProt P54829); experiment: pNPP hydrolysis phosphatase assay (selectivity panel); type: biochemical; settings: pNPP as substrate
T2 sequence (P54829 1-565): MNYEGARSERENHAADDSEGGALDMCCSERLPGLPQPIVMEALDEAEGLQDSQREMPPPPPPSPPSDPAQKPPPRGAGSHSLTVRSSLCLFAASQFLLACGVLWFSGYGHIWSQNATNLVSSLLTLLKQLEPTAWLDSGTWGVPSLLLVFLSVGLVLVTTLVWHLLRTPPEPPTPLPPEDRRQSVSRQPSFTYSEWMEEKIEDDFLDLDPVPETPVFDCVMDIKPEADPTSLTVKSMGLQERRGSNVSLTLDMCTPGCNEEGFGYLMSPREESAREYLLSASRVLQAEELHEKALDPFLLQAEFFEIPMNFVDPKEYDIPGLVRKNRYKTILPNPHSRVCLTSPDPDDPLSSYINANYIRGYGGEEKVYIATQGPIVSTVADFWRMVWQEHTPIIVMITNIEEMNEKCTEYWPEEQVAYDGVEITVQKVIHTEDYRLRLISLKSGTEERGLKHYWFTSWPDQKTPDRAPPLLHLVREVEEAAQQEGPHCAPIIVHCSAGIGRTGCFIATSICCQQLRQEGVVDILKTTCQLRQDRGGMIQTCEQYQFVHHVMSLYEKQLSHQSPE

YPH = YPH (Yersinia enterocolitica, UniProt P15273); type: biochemical
YPH, sequence (P15273 163-468 limits assumed): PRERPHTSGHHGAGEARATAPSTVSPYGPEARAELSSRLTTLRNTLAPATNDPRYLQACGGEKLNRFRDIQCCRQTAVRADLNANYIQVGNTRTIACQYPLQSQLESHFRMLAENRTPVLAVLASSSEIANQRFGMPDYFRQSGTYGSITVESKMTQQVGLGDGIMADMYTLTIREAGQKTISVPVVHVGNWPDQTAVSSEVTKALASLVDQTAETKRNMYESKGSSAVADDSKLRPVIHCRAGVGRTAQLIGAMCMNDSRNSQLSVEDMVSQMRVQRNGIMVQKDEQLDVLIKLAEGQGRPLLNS

PPM1A = molecular target: T3, PPM1A (Homo sapiens, UniProt P35813); experiment: pNPP hydrolysis phosphatase assay (selectivity panel); type: biochemical
T3 sequence (P35813 1-382): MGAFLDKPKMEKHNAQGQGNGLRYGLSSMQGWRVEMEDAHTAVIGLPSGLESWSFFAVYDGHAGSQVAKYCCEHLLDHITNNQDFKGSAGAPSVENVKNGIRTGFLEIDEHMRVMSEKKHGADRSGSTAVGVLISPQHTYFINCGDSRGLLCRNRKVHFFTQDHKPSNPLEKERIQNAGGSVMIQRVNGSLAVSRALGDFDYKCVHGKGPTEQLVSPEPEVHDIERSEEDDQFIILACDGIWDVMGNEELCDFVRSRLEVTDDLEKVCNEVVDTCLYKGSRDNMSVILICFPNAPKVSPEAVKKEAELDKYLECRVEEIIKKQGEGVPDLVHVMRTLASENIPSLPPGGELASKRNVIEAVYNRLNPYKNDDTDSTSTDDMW

topoisomerases = experiment: Topoisomerase inhibition in vitro; type: biochemical; settings: data not shown
PPM1K = molecular target: T4, PPM1K (Homo sapiens, UniProt Q8N3J5); experiment: pNPP hydrolysis phosphatase assay (selectivity panel); type: biochemical; settings: pNPP as substrate
T4 sequence (Q8N3J5 30-372): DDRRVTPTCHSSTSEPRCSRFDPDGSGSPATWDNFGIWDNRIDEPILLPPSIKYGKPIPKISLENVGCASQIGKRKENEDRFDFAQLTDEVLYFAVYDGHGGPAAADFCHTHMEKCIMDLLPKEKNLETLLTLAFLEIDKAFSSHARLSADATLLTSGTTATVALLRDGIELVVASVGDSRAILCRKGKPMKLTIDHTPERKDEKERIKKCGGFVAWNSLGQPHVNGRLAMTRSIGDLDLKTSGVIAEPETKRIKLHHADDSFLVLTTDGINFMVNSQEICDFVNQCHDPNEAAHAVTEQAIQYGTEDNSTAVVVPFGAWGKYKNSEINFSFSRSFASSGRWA

## Nc1cc(-c2ccc(-c3ccc(O)c(O)c3)cc2)ccc1C(=O)O [HN252]
SSH2
  IC50: 55.1 ± 2.88 µM
[1]
  effect on phosphorylation of AMPKα, CDK2 and p38: mild effect
STEP
  IC50: 91.1 ± 10.1 µM
YPH
  IC50: 77.2 ± 7.95 µM
PPM1A; Lineweaver-Burk plot, pNPP hydrolysis, pH 7.0, 37°C, 0.4 μM PPM1A
  inhibition pattern: non-competitive inhibition; also recorded: non‐competitive inhibitor
PPM1A; pNPP as substrate
  IC50: 0.72 ± 0.22 µM
topoisomerases
  inhibition against topoisomerases: no inhibition
PPM1K
  IC50: 27.4 ± 3.92 µM
